The results in this text go back to ChEMBL document CHEMBL2074363, “Human organic anion transporters mediate the transport of tetracycline” (Jpn J Pharmacol, 2002).

In general, Km refers to the concentration of substrate that gives half-maximal velocity.

Assay type in all cases: functional, cell-based
In series [1] the target is T1, Organic anion transporter 3 (Homo sapiens, UniProt Q8TCC7).
T1 sequence (Q8TCC7 whole entry): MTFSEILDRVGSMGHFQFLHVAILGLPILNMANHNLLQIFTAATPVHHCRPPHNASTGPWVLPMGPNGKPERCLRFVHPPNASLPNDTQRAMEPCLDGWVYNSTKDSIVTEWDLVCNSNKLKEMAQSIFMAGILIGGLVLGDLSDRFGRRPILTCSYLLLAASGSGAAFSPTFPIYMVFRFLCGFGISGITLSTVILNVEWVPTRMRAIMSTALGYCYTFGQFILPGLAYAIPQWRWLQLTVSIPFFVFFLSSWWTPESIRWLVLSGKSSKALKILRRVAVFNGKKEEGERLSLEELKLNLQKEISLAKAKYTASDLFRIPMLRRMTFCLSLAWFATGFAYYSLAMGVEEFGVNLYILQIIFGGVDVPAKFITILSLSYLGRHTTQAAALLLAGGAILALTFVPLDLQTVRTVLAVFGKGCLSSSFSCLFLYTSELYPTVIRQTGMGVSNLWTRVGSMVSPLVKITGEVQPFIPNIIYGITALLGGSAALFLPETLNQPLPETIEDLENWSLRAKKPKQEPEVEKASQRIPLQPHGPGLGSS
Nature of the series: TP_TRANSPORTER: inhibition of E1S uptake (E1S: 0.05 uM, Doxycycline: 50 uM) in OAT3-expressing S2 cells. As to conditions: s2, 50 µM.

In series [2] the target is T2, Solute carrier family 22 member 11 (Homo sapiens, UniProt Q9NSA0).
T2 sequence (Q9NSA0 whole entry): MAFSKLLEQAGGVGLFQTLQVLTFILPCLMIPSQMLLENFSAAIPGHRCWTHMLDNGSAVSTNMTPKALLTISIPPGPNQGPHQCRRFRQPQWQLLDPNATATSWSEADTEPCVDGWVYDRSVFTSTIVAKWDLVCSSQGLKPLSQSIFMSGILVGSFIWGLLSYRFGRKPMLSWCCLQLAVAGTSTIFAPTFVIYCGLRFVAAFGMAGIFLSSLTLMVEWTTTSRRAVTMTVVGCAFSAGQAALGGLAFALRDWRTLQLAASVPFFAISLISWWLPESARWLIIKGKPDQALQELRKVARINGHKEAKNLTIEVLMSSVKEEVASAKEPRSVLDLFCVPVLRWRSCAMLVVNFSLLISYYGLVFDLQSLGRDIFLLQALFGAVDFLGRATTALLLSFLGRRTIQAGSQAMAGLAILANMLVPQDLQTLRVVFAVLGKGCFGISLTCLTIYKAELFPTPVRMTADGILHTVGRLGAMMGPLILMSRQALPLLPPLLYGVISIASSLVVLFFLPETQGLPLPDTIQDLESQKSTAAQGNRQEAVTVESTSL
The series is described as follows: TP_TRANSPORTER: inhibition of E1S uptake (E1S: 0.05 uM, Doxycycline: 50 uM) in OAT4-expressing S2 cells. The conditions noted are these: mouse, s2, 50 µM.

Series [3] deals with T3, Solute carrier family 22 member 6 (Homo sapiens, UniProt Q4U2R8).
T3 sequence (Q4U2R8 whole entry): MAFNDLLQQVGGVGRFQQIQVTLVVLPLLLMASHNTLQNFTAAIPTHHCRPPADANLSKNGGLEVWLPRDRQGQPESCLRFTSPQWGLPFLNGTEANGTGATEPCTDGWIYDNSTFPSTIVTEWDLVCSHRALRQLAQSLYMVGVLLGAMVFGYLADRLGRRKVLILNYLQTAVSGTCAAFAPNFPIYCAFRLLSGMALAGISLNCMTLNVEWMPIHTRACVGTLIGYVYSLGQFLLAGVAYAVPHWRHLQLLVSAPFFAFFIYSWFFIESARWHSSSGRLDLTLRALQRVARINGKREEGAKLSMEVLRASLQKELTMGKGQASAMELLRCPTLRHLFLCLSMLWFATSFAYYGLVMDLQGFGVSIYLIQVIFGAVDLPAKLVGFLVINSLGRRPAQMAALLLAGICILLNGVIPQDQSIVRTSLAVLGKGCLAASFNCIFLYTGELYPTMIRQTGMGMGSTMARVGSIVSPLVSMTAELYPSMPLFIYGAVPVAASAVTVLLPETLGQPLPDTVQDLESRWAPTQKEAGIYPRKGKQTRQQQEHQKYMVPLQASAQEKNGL
Nature of the series: TP_TRANSPORTER: inhibition of PAH uptake (PAH: 5 uM, Doxycycline: 500 uM) in OAT1-expressing S2 cells. As to conditions: s2, 500 µM.

The target in series [4] is T1, Organic anion transporter 3. The series is described as follows: TP_TRANSPORTER: inhibition of E1S uptake (E1S: 0.05 uM, Minocycline: 50 uM) in OAT3-expressing S2 cells. As to conditions: s2, 50 µM.
Series [5] deals with T2, Solute carrier family 22 member 11. The series is described as follows: TP_TRANSPORTER: inhibition of E1S uptake (E1S: 0.05 uM, Minocycline: 50 uM) in OAT4-expressing S2 cells. As to conditions: mouse, s2, 50 µM.
For series [6], the target named is T3, Solute carrier family 22 member 6. The series is described as follows: TP_TRANSPORTER: inhibition of PAH uptake (PAH: 5 uM, Minocycline: 500 uM) in OAT1-expressing S2 cells. The conditions noted are these: s2, 500 µM.
Series [7] concerns the target T4, Solute carrier family 22 member 7 (Homo sapiens, UniProt Q9Y694).
T4 sequence (Q9Y694 whole entry): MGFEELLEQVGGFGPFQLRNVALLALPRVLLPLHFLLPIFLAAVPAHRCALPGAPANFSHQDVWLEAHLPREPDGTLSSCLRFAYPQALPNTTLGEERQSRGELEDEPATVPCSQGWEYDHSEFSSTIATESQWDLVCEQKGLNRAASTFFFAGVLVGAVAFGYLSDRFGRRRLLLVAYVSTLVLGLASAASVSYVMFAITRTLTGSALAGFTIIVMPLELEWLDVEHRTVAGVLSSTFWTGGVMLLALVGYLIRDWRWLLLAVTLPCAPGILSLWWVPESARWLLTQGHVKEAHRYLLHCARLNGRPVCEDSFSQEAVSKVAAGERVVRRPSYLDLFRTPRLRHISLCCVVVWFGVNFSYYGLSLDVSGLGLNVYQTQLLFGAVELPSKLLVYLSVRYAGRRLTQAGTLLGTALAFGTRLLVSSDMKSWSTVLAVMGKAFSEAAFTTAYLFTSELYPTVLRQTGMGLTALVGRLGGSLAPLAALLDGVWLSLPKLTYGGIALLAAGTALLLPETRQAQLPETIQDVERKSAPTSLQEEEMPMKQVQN
The series is described as follows: TP_TRANSPORTER: inhibition of PGF2alpha uptake (PGF2alpha: 0.005 uM, Minocycline: 5 uM) in OAT2-expressing S2 cells. As to conditions: s2, 5 µM.

Series [8] addresses T1, Organic anion transporter 3. The series is described as follows: TP_TRANSPORTER: inhibition of E1S uptake (E1S: 0.05 uM, Oxytetracycline: 50 uM) in OAT3-expressing S2 cells. The conditions noted are these: s2, 50 µM.
Series [9] has as its target T4, Solute carrier family 22 member 7. Nature of the series: TP_TRANSPORTER: inhibition of PGF2alpha uptake (PGF2alpha: 0.005 uM, Oxytetracycline: 5 uM) in OAT2-expressing S2 cells. As to conditions: s2, 5 µM.
For series [10], the target named is T3, Solute carrier family 22 member 6. Nature of the series: TP_TRANSPORTER: inhibition of PAH uptake (PAH: 5 uM, Oxytetracycline: 500 uM) in OAT1-expressing S2 cells. As to conditions: mouse, s2, 500 µM.
Series [11] addresses T2, Solute carrier family 22 member 11. Nature of the series: TP_TRANSPORTER: inhibition of E1S uptake (E1S: 0.05 uM, Oxytetracycline: 50 uM) in OAT4-expressing S2 cells. As to conditions: mouse, s2, 50 µM.
Series [12] deals with T1, Organic anion transporter 3. The series is described as follows: TP_TRANSPORTER: inhibition of E1S uptake (E1S: 0.05 uM, Tetracycline: 50 uM) in OAT3-expressing S2 cells. As to conditions: mouse, s2, 50 µM.
The target of series [13] is T3, Solute carrier family 22 member 6. Nature of the series: TP_TRANSPORTER: inhibition of PAH uptake (PAH: 5 uM, Tetracycline: 1000 uM) in OAT1-expressing S2 cells. The conditions noted are these: s2, 1000 µM.
In series [14] the target is T2, Solute carrier family 22 member 11. The series is described as follows: TP_TRANSPORTER: inhibition of E1S uptake (E1S: 0.05 uM, Tetracycline: 50 uM) in OAT4-expressing S2 cells. The conditions noted are these: mouse, s2, 50 µM.
Series [15] concerns the target T4, Solute carrier family 22 member 7. Nature of the series: TP_TRANSPORTER: inhibition of PGF2alpha uptake (PGF2alpha: 0.005 uM, Tetracycline: 5 uM) in OAT2-expressing S2 cells. As to conditions: mouse, s2, 5 µM.
Substrate in series [16]: CN(C)[C@@H]1C(O)=C(C(N)=O)C(=O)[C@@]2(O)C(O)=C3C(=O)c4c(O)cccc4[C@@](C)(O)[C@H]3C[C@@H]12
The series is described as follows: TP_TRANSPORTER: uptake in OAT3-expressing S2 cells.

Substrate in series [17]: CN(C)[C@@H]1C(O)=C(C(N)=O)C(=O)[C@@]2(O)C(O)=C3C(=O)c4c(O)cccc4[C@@](C)(O)[C@H]3C[C@@H]12
Nature of the series: TP_TRANSPORTER: uptake in OAT4-expressing S2 cells.

Substrate in series [18]: CN(C)[C@@H]1C(O)=C(C(N)=O)C(=O)[C@@]2(O)C(O)=C3C(=O)c4c(O)cccc4[C@@](C)(O)[C@H]3C[C@@H]12
The series is described as follows: TP_TRANSPORTER: uptake in OAT2-expressing S2 cells.

Consider `C[C@H]1c2cccc(O)c2C(=O)C2=C(O)[C@]3(O)C(=O)C(C(N)=O)=C(O)[C@@H](N(C)C)[C@@H]3[C@@H](O)[C@@H]21.O` [DOXYCYCLINE], for which the figures for the Activity entry in [1], in series [2] and in series [3] were “is not an inhibitor [-]”, “is not an inhibitor [-]” and “inhibitor [(at a rough estimate) 25 % of control]”, respectively.

`CN(C)c1ccc(O)c2c1C[C@H]1C[C@H]3[C@H](N(C)C)C(O)=C(C(N)=O)C(=O)[C@@]3(O)C(O)=C1C2=O` [MINOCYCLINE]: the Activity entry in series [4] was “is not an inhibitor [-]”; in [5], “is not an inhibitor [-]”; in series [6], “inhibitor [(at a rough estimate) 10 % of control]”; in series [7], “inhibitor [(at a rough estimate) 80 % of control]”.

For `CN(C)[C@@H]1C(O)=C(C(N)=O)C(=O)[C@@]2(O)C(O)=C3C(=O)c4c(O)cccc4[C@@](C)(O)[C@H]3[C@H](O)[C@@H]12` [OXYTETRACYCLINE], the Activity entry was “is not an inhibitor [-]” in series [8], “inhibitor [(at a rough estimate) 80 % of control]” in series [9], “inhibitor [(at a rough estimate) 20 % of control]” in series [10] and “is not an inhibitor [-]” in series [11].

As for `CN(C)[C@@H]1C(O)=C(C(N)=O)C(=O)[C@@]2(O)C(O)=C3C(=O)c4c(O)cccc4[C@@](C)(O)[C@H]3C[C@@H]12` [TETRACYCLINE], the Activity result in [12] was “is not an inhibitor [-]”; in [13] it was “inhibitor [(at a rough estimate) 45 % of control]”; in series [14], “inhibitor [(at a rough estimate) 75 % of control]”; in [15], “inhibitor [(at a rough estimate) 85 % of control]”.

B1: Organic anion transporter 3 (Homo sapiens) (protein)
chain: T1 sequence (Q8TCC7 whole entry)
Regarding B1, the Km in series [16] turned out to be 566 µM.

B2: Solute carrier family 22 member 11 (Homo sapiens) (protein)
chain: T2 sequence (Q9NSA0 whole entry)
On to B2, for which, in [17], the Km turned out to be 123 µM.

B3: Solute carrier family 22 member 7 (Homo sapiens) (protein)
chain: T4 sequence (Q9Y694 whole entry)
Consider B3, for which the Km in series [18] worked out at 440 µM.
